This is an account of results in PMC10535624, “Curcuminoid Chalcones: Synthesis, Stability, and New Neuroprotective and Sonosensitising Activities” (Pharmaceuticals, 2023).

The target of assay [1] is T1, glutathione reductase (GR) (Homo sapiens, UniProt P00390).
T1 sequence (P00390 44-522): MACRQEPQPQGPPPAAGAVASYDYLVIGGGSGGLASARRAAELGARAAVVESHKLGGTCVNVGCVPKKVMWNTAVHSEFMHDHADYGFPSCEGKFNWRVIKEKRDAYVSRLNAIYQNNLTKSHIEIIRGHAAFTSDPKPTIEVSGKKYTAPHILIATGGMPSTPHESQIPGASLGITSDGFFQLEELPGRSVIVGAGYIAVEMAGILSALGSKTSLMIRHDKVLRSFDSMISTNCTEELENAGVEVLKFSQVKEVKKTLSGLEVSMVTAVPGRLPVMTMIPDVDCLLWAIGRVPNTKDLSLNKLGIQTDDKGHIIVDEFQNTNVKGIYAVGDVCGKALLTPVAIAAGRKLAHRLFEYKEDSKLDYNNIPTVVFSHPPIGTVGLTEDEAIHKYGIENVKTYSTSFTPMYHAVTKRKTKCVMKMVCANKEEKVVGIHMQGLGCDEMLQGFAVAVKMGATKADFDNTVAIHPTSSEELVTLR
The experiment in a line: Effect on GR activity. It is filed as biochemical. The following applies: samples 3 mM/dm^3 in DMSO; mean ± SEM, n = 3. As to the method:
We decided to extend the study by measuring the compounds’ ability to inhibit glutathione reductase (GR) and GPx activities, the human cells’ main endogenous enzymatic defence systems. Therefore, we checked the influence of some curcuminoid chalcones on GR and GPx using in vitro spectroscopic methods (Table 2). Moreover, the effects of curcuminoid chalcones on CAT activity were estimated (Table 2).
(§1) The samples were dissolved in DMSO (Sigma D4540) to obtain a concentration of 3 mM/dm^3.
The analyses were performed strictly as described by Studzińska-Sroka et al..

Assay [2] has as its target T2, COX-2 (Homo sapiens, UniProt P35354).
T2 sequence (P35354 18-604): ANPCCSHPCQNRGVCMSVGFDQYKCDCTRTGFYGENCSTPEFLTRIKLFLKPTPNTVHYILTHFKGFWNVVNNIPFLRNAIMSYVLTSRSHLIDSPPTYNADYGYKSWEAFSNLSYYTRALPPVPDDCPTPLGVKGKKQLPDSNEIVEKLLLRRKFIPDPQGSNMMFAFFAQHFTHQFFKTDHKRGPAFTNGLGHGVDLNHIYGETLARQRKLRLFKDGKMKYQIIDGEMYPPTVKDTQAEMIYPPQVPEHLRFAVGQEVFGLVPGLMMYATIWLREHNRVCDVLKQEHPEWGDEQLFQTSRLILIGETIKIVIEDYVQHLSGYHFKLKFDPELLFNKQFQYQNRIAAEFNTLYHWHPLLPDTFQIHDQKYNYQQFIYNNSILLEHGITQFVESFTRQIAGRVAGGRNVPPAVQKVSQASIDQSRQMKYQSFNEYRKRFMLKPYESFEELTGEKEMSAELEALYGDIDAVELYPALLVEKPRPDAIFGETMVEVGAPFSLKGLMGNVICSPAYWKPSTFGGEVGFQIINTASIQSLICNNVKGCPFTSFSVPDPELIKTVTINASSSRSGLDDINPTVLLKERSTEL
The experiment in a line: Effect on COX-2 activity. It is filed as biochemical. The note with it: samples 3 mM/dm^3 in DMSO, 0.02 mL; mean ± SEM, n = 3.

For assay [3], the system named is SCC-25 cells. The experiment in a line: Sonodynamic cytotoxicity, MTT test. The assay is classed as cell-based, human. The following applies: 40 µM, 8 h, then US 3 min, 3 MHz, 0.8 W/cm^2; MTT 6 h later; compared to untreated cells. In general terms: Tetrazolium dyes change colour on reduction, which living cells bring about.
Assay [4] in a line: Hydroxyl radical antioxidant capacity (HORAC). The following applies: samples 1 mg/mL DMSO; mean ± SEM, n = 3.
In assay [5] the test system is SOD2 gene. Further details: method as in PMID 37779412. The following applies: qRT-PCR ref 35; cited from earlier work. A general note: Real-time PCR tracks product formation cycle by cycle.
The target of assay [6] is T3, catalase (CAT) (Aspergillus niger, UniProt P55303).
T3 construct: purchased Sigma C3515
T3 sequence (P55303 whole entry): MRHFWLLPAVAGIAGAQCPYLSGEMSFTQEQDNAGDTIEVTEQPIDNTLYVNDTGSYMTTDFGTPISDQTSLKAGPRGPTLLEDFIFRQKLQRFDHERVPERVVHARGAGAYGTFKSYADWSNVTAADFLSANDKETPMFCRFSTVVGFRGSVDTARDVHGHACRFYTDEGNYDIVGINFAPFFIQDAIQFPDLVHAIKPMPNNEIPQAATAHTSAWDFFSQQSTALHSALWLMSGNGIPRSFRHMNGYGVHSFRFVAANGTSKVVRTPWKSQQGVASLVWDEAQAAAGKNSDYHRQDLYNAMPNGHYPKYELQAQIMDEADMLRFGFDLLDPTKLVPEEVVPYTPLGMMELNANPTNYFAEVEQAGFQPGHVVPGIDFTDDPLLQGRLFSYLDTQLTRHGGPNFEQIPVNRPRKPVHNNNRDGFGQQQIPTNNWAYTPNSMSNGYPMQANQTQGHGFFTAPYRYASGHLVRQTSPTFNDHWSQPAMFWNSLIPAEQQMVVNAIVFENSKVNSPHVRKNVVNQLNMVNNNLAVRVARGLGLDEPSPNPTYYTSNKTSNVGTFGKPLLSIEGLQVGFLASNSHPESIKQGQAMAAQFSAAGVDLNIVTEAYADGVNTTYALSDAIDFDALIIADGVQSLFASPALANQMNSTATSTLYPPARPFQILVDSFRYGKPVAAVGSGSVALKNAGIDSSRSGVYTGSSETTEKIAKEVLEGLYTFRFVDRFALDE
Nature of the assay: Effect on CAT activity. The assay is classed as biochemical. The note with it: samples 3 mM/dm^3 in DMSO, 0.01 mL; mean ± SEM, n = 3. How it is done: as §1
The method used by Watanabe et al. was used with the following modifications. The reaction mixture was composed of 0.02 mL of EDTA solution (56.5 mM), 0.01 mL of ^the sample, 0.02 mL of 3% H2O2 solution (Sigma H1009), and 0.02 mL of catalase solution (4000-fold diluted, Sigma C3515) (all reagents except the tested sample were diluted in TRIS buffer, pH 7.0, 1 mol/dm^3). The volume was completed to 0.31 mL by the same buffer solution. In a blank sample, DMSO (Sigma D4540) replaced the tested sample. The background of the sample was measured in a mixture composed of 0.01 mL of the sample completed to 0.31 mL by the buffer. The absorbance was read at 240 nm directly after the mixing and after 5 min of incubation (room temperature). The decreased absorbance (depletion of H2O2) in the tested and blank samples was compared. The calibration curve was produced using eleven H2O2 solutions (0.5693–5.693 mM/dm^3). The results are expressed in % inhibition and as H2O2 depletion (mmol of depleted H2O2/dm^3 min).

Take `COc1cc(C=CC(=O)c2ccccc2)ccc1OC(=O)C(C)c1ccc(CC(C)C)cc1` (centres unmarked) [Compound 2, 2-Methoxy-4-(3-oxo-3-phenylprop-1-en-1-yl)phenyl-2-(4-isobutylphenyl)-propionate]: in assay [1], the “GR Inhibition (%)” value was determined as 27.1 ± 4.0% and the “GR activity (NADPH consumption rate)” value is recorded as 1018 ± 150 nmol Depleted NADPH/min. Besides, the “COX-2 Inhibition (%)” value in assay [2] was “-”. Further, the “Reduction of viability of SCC-25 cells, compound combined with US” value in assay [3] was “significantly reduced viability”. Further, in assay [4], the “HORAC, Gallic Acid Equivalents” value turned out to be 24.2 ± 2.3 µg/mL.
In the case of `COc1ccc(C=CC(=O)c2ccccc2)cc1OC(=O)C(C)c1ccc(CC(C)C)cc1` (centres unmarked) [Compound 6, 2-Methoxy-5-(3-oxo-3-phenylprop-1-en-1-yl)phenyl-2-(4-isobutylphenyl)-propionate], the “GR Inhibition (%)” value in assay [1] is “did not inhibit and -”. In addition, in assay [5], the “Decrease of expression of the SOD2 gene compared to the control” value is listed as 65.20%. For the same compound, the “COX-2 Inhibition (%)” value in assay [2] was “-”. Further, the “HORAC, Gallic Acid Equivalents” value in assay [4] was found to be 20.4 ± 3.0 µg/mL. Further, in assay [6], the “CAT Inhibition (%)” value was found to be 41.9 ± 1.2% and the “CAT Inhibition of the H2O2 Depletion” value came to 0.15 ± 0.01 mm/dm^3/min.
